Among the data in article PMC12386934, “Characteristics and Potential of KSL, KSL-W, and Dadapin-1 Antimicrobial Peptides for Preventing Infections of Orthopedic Prosthetic Devices: Identifying the Most Robust Candidate” (International Journal of Molecular Sciences, 2025) are MBC values, retold here.

What is called MBC is the smallest concentration meeting the test's criterion for killing.

The assay relates to S. epidermidis cra4029 (SE 02). Type of assay: cell-based. From the text:
The experimental scheme reported in Figure 6 helped to simplify and optimize the in vitro testing of the antibacterial activity of the different AMPs. The initial transparent microtiter plate for the determination of the minimum inhibitory concentration (MIC) by optical density (OD) measurement was conveniently used as a starting point not only for the alterative determination of the MIC by luminescence but also for the minimum bactericidal concentration (MBC) and for the minimum biofilm inhibitory concentration (MBIC), as explained below. For every test peptide, at least three independent experiments were performed on each bacterial strain per test condition (100% MHB and 20% MHB). The sole exception to this rule was when MIC values were on rare occasions found to be greater than 500 µg/mL. Under these circumstances, two consecutive experiments were performed to confirm the results. In this case, the antibacterial activity was considered insignificant and the third experiment was generally considered unnecessary.
The antibacterial properties of the test AMPs were assayed under two distinct conditions of bacterial culture: (i) with bacteria cultured in undiluted Mueller–Hinton II Broth (MHB II) and (ii) with bacteria cultured in diluted MHB II as earlier described in Campoccia et al.. Briefly, a few colonies of each bacterial strain, taken from overnight cultures on Mueller–Hinton Agar plates (MHA, PO50007A, ThermoScientific, Thermo Fisher Scientific, Segrate, Italy), were resuspended in Mueller–Hinton II Broth (MHB II, 24107, Liofilchem, Roseto degli Abruzzi, Italy), either undiluted or at a 20% dilution in deionized water. The concentration of bacteria was adjusted to approximately 10^8 CFU/mL, as estimated by optical density reading at 625 nm, using a Hewlett Packard G1103A spectrophotometer (Waldbronn, Germany). The bacterial suspension was further diluted 1:100 in 100% or 20% MHB II. […]
For assessing the MBC, 10 μL of bacterial suspensions was taken from wells corresponding to MIC, 2× MIC, and 4× MIC and then plated on MHA plates. […] The MBC was determined as the lowest dilution causing absence of bacterial colonies growth on the plate.
In order to assess the extent of the interference of the culture medium composition with the antibacterial activity of the three peptides, a “Rate of Abatement” of the bactericidal properties (RoA) was calculated using the following formula (Equation (1)):RoA = MBCMHB/MBC20% MHB(1)
RoA indicates the fold increases in the MBC when tested in undiluted medium […], i.e., with maximal interference of broth polyanionic substances, with respect to diluted medium […]. […] A more versatile measure to express the loss of activity was calculated as follows. […]

Values after ≈ are worked out from the molar mass of the structure shown. Where a SMILES comes first, the peptide text is derived from it.

Take `CC(C)[C@H](NC(=O)[C@H](Cc1c[nH]c2ccccc12)NC(=O)[C@H](Cc1ccccc1)NC(=O)[C@@H](NC(=O)[C@@H](NC(=O)[C@H](CCCCN)NC(=O)[C@@H](N)CCCCN)C(C)C)C(C)C)C(=O)N[C@@H](CCCCN)C(=O)N[C@@H](Cc1ccccc1)C(=O)N[C@@H](CCCCN)C(=O)O` [KSL-W] (H-KKVVFWVKFK-OH): the MBC came out at 1.95 µg/mL (≈ 1.49 µM).
